Assay: Inhibition of Nav1.7 in C57BL/6 […] embryonic DRG cells assessed as blockade of spontaneous neuronal firing by Maestro microelectrode array analysis

Q: With `N[C@H]1CC[C@@H](CNc2cc(F)c(S(=O)(=O)Nc3nccs3)cc2Cl)CC1` as the compound, how does the IC50 read?
A: 1.2 nM

— BindingDB's records for doi:10.1021/acs.jmedchem.6b01918 (Bristol Myers Squibb, 2017)
